# Values of other authors in patent publication US6743448B2 (priority 2000, dated 2004).
# Columns and labels:
# IGF-I mRNA = settings: relative to hypophysectomized control animals
# prostatic cells = settings: 1 nM for 2-7 days
# [1] = system: formation of DHT and androstenedione; settings: 14C-testosterone as substrate, effective inhibitory concentrations, n 4, p<0.001
compound,measurement,setting,value
"C[C@]12CCC(=O)C[C@@H]1CC[C@@H]1[C@@H]2CC[C@]2(C)[C@@H](O)CC[C@@H]12 [DHT, dihydrotestosterone]",Increase of the IGF-I mRNA level,IGF-I mRNA,40 times
"COc1ccc2[nH]cc(CCNC(C)=O)c2c1 [Melatonin, melatonin]",Effect on cell growth,prostatic cells,inhibit cell growth
"CC(=O)[C@H]1CC[C@H]2[C@@H]3CCC4=CC(=O)CC[C@]4(C)[C@H]3CC[C@]12C [Progesterone, progesterone]",Inhibition of the formation of DHT,[1],10 fold
same,Inhibition of the formation of androstenedione,[1],3-5 fold
"C[C@]12CC[C@H]3[C@@H](CCC4=CC(=O)CC[C@@]43C)[C@@H]1CC[C@@H]2O [Testosterone, (17)-17-Hydroxyandrost-4-en-3-one]",Increase of the IGF-I mRNA level,IGF-I mRNA,30 times
